Measured values reported in article doi:10.1101/2024.02.22.581678v1 (biorxiv, 2024).

Each compound was assayed against MeAmi_SBP (assay: isothermal analysis of ligand-titrated DSF). Details: 50 mM Tris, 300 mM NaCl, pH 7.4; 8.4 μM His6-tagged protein; one-site model.
Format: binding, Mesorhizobium sp.

First: C[C@H](N)C(N)=O [L-alaninamide]
Second: NCC(N)=O [glycinamide]
The Kd of the first is 32-fold lower: 1530 nM for the first, 49700 nM for the second.

With `NC(=O)[C@@H](N)Cc1ccc(O)cc1` [L-tyrosinamide] the Kd was 187 nM.
